Test results: ChEMBL document CHEMBL1201861, “Genomics of Drug Sensitity in Cancer screening data, Wellcome Trust Sanger Institute”

What was measured:
Test in all cases: cells
SH-4 = assay type: functional, cell-based; settings: Homo sapiens
Description: SANGER: Inhibition of human SH-4 cell growth in a cell viability assay.

LAMA-84 = assay type: functional, cell-based, Homo sapiens; settings: Homo sapiens, LAMA-84
Description: SANGER: Inhibition of human LAMA-84 cell growth in a cell viability assay.

MZ1-PC = assay type: functional, cell-based, Homo sapiens; settings: Homo sapiens, MZ1-PC
Description: SANGER: Inhibition of human MZ1-PC cell growth in a cell viability assay.

NCI-H1299 = assay type: functional, cell-based; settings: Homo sapiens
Description: SANGER: Inhibition of human NCI-H1299 cell growth in a cell viability assay.

MMAC-SF = assay type: functional, cell-based; settings: Homo sapiens
Description: SANGER: Inhibition of human MMAC-SF cell growth in a cell viability assay.

U-266 = assay type: functional, cell-based, Homo sapiens; settings: Homo sapiens, U-266
Description: SANGER: Inhibition of human U-266 cell growth in a cell viability assay.

TK-10 = assay type: functional, cell-based, Homo sapiens; settings: Homo sapiens, TK-10
Description: SANGER: Inhibition of human TK10 cell growth in a cell viability assay.

SCC-15 = assay type: functional, cell-based, Homo sapiens; settings: Homo sapiens, SCC-15
Description: SANGER: Inhibition of human SCC-15 cell growth in a cell viability assay.

SK-PN-DW = assay type: functional, cell-based, Homo sapiens; settings: Homo sapiens, SK-PN-DW
Description: SANGER: Inhibition of human SK-PN-DW cell growth in a cell viability assay.

HOP-62 = assay type: functional, cell-based, Homo sapiens; settings: Homo sapiens, HOP-62
Description: SANGER: Inhibition of human HOP-62 cell growth in a cell viability assay.

DJM-1 = assay type: functional, cell-based, Homo sapiens; settings: Homo sapiens, DJM-1
Description: SANGER: Inhibition of human DJM-1 cell growth in a cell viability assay.

A704 = assay type: functional, cell-based; settings: Homo sapiens
Description: SANGER: Inhibition of human A704 cell growth in a cell viability assay.

CAS-1 = assay type: functional, cell-based, Homo sapiens; settings: Homo sapiens, CAS-1
Description: SANGER: Inhibition of human CAS-1 cell growth in a cell viability assay.

OCUB-M = assay type: functional, cell-based; settings: Homo sapiens
Description: SANGER: Inhibition of human OCUB-M cell growth in a cell viability assay.

697 = assay type: functional, cell-based, Homo sapiens; settings: Homo sapiens
Description: SANGER: Inhibition of human 697 cell growth in a cell viability assay.

no-10 = assay type: functional, cell-based, Homo sapiens; settings: Homo sapiens
Description: SANGER: Inhibition of human no-10 cell growth in a cell viability assay.

ES4 = assay type: functional, cell-based, Homo sapiens; settings: Homo sapiens, ES4
Description: SANGER: Inhibition of human ES4 cell growth in a cell viability assay.

SF-126 = assay type: functional, cell-based, Homo sapiens; settings: Homo sapiens, SF-126
Description: SANGER: Inhibition of human SF126 cell growth in a cell viability assay.

SW684 = assay type: functional, cell-based, Homo sapiens; settings: Homo sapiens, SW684; read-out: IC50
Description: SANGER: Inhibition of human SW684 cell growth in a cell viability assay.

EOL1 = assay type: functional, cell-based, Homo sapiens; settings: Homo sapiens, EOL1
Description: SANGER: Inhibition of human EoL-1-cell cell growth in a cell viability assay.

COLO-684 = assay type: functional, cell-based, Homo sapiens; settings: Homo sapiens, COLO-684
Description: SANGER: Inhibition of human COLO-684 cell growth in a cell viability assay.

LB771-HNC = assay type: functional, cell-based; settings: Homo sapiens
Description: SANGER: Inhibition of human LB771-HNC cell growth in a cell viability assay.

MOLT-4 = assay type: functional, cell-based, Homo sapiens; settings: Homo sapiens, MOLT-4
Description: SANGER: Inhibition of human MOLT-4 cell growth in a cell viability assay.

IST-MEL1 = assay type: functional, cell-based, Homo sapiens; settings: Homo sapiens, IST-MEL1
Description: SANGER: Inhibition of human IST-MEL1 cell growth in a cell viability assay.

SK-MEL-2 = assay type: functional, cell-based, Homo sapiens; settings: Homo sapiens, SK-MEL-2
Description: SANGER: Inhibition of human SK-MEL-2 cell growth in a cell viability assay.

SK-LMS-1 = assay type: functional, cell-based, Homo sapiens; settings: Homo sapiens, SK-LMS-1
Description: SANGER: Inhibition of human SK-LMS-1 cell growth in a cell viability assay.

L-363 = assay type: functional, cell-based, Homo sapiens; settings: Homo sapiens, L-363
Description: SANGER: Inhibition of human L-363 cell growth in a cell viability assay.

LS-123 = assay type: functional, cell-based, Homo sapiens; settings: Homo sapiens, LS-123
Description: SANGER: Inhibition of human LS-123 cell growth in a cell viability assay.

NCI-H2126 = assay type: functional, cell-based, Homo sapiens; settings: Homo sapiens, NCI-H2126
Description: SANGER: Inhibition of human NCI-H2126 cell growth in a cell viability assay.

LB2241-RCC = assay type: functional, cell-based, Homo sapiens; settings: Homo sapiens, LB2241-RCC
Description: SANGER: Inhibition of human LB2241-RCC cell growth in a cell viability assay.

SW 962 = assay type: functional, cell-based, Homo sapiens; settings: Homo sapiens, SW 962
Description: SANGER: Inhibition of human SW962 cell growth in a cell viability assay.

K562 = assay type: functional, cell-based, Homo sapiens; settings: Homo sapiens, K562
Description: SANGER: Inhibition of human K-562 cell growth in a cell viability assay.

GI-1 = assay type: functional, cell-based, Homo sapiens; settings: Homo sapiens, GI-1
Description: SANGER: Inhibition of human GI-1 cell growth in a cell viability assay.

HT = assay type: functional, cell-based, Homo sapiens; settings: Homo sapiens, HT
Description: SANGER: Inhibition of human HT cell growth in a cell viability assay.

DEL = assay type: functional, cell-based, Homo sapiens; settings: Homo sapiens, DEL
Description: SANGER: Inhibition of human DEL cell growth in a cell viability assay.

RH-1 = assay type: functional, cell-based, Homo sapiens; settings: Homo sapiens, RH-1
Description: SANGER: Inhibition of human RH-1 cell growth in a cell viability assay.

J-RT3-T3-5 = assay type: functional, cell-based, Homo sapiens; settings: Homo sapiens, J-RT3-T3-5
Description: SANGER: Inhibition of human J-RT3-T3-5 cell growth in a cell viability assay.

LB2518-MEL = assay type: functional, cell-based; settings: Homo sapiens
Description: SANGER: Inhibition of human LB2518-MEL cell growth in a cell viability assay.

BT-474 = assay type: functional, cell-based, Homo sapiens; settings: Homo sapiens, BT-474
Description: SANGER: Inhibition of human BT-474 cell growth in a cell viability assay.

ES1 = assay type: functional, cell-based, Homo sapiens; settings: Homo sapiens, ES1
Description: SANGER: Inhibition of human ES1 cell growth in a cell viability assay.

OCI-AML2 = assay type: functional, cell-based, Homo sapiens; settings: Homo sapiens, OCI-AML2
Description: SANGER: Inhibition of human OCI-AML2 cell growth in a cell viability assay.

A3-KAW = assay type: functional, cell-based, Homo sapiens; settings: Homo sapiens, A3-KAW
Description: SANGER: Inhibition of human A3-KAW cell growth in a cell viability assay.

LU-139 = assay type: functional, cell-based, Homo sapiens; settings: Homo sapiens, LU-139
Description: SANGER: Inhibition of human LU-139 cell growth in a cell viability assay.

HCC1187 = assay type: functional, cell-based, Homo sapiens; settings: Homo sapiens, HCC1187
Description: SANGER: Inhibition of human HCC1187 cell growth in a cell viability assay.

OMC-1 = assay type: functional, cell-based, Homo sapiens; settings: Homo sapiens, OMC-1
Description: SANGER: Inhibition of human OMC-1 cell growth in a cell viability assay.

TE-1 = assay type: functional, cell-based, Homo sapiens; settings: Homo sapiens, TE-1
Description: SANGER: Inhibition of human TE-1 cell growth in a cell viability assay.

RPMI-8866 = assay type: functional, cell-based, Homo sapiens; settings: Homo sapiens, RPMI-8866
Description: SANGER: Inhibition of human RPMI-8866 cell growth in a cell viability assay.

RKO = assay type: functional, cell-based, Homo sapiens; settings: Homo sapiens, RKO
Description: SANGER: Inhibition of human RKO cell growth in a cell viability assay.

GAK = assay type: functional, cell-based, Homo sapiens; settings: Homo sapiens, GAK
Description: SANGER: Inhibition of human GAK cell growth in a cell viability assay.

SHP77 = assay type: functional, cell-based, Homo sapiens, SHP-77; settings: Homo sapiens, SHP77
Description: SANGER: Inhibition of human SHP-77 cell growth in a cell viability assay.

HT-144 = assay type: functional, cell-based, Homo sapiens; settings: Homo sapiens, HT-144
Description: SANGER: Inhibition of human HT-144 cell growth in a cell viability assay.

## CCCCCCCCCCCC1=C(O)C(=O)C=C(O)C1=O [EMBELIN]
SH-4
  IC50: 24.9 µM
LAMA-84
  IC50: 18.5 µM
MZ1-PC
  IC50: 5.71 µM
NCI-H1299
  IC50: > 32 µM
MMAC-SF
  IC50: 26.8 µM
U-266
  IC50: > 32 µM
TK-10
  IC50: > 32 µM
SCC-15
  IC50: 7.81 µM
SK-PN-DW
  IC50: 30.6 µM
HOP-62
  IC50: 5.69 µM
DJM-1
  IC50: 8.8 µM
A704
  IC50: 10.9 µM
CAS-1
  IC50: 15.3 µM
OCUB-M
  IC50: 5.32 µM
697
  IC50: > 32 µM
no-10
  IC50: 13.9 µM
ES4
  IC50: 4.52 µM
SF-126
  IC50: 10.3 µM
SW684
  IC50: > 32 µM
EOL1
  IC50: 6.73 µM
COLO-684
  IC50: 20.6 µM
LB771-HNC
  IC50: > 32 µM
MOLT-4
  IC50: 10.6 µM
IST-MEL1
  IC50: 7.9 µM
SK-MEL-2
  IC50: 11.7 µM
SK-LMS-1
  IC50: 5.64 µM
L-363
  IC50: 24.1 µM
LS-123
  IC50: 9.42 µM
NCI-H2126
  IC50: 27.9 µM
LB2241-RCC
  IC50: > 32 µM
SW 962
  IC50: 7.77 µM
K562
  IC50: 31.7 µM
GI-1
  IC50: 3.76 µM
HT
  IC50: 5.51 µM
DEL
  IC50: 10.4 µM
RH-1
  IC50: 13.3 µM
J-RT3-T3-5
  IC50: 6.09 µM
LB2518-MEL
  IC50: > 32 µM
BT-474
  IC50: > 32 µM
ES1
  IC50: 7.81 µM
OCI-AML2
  IC50: 9.25 µM
A3-KAW
  IC50: 9.01 µM
LU-139
  IC50: > 32 µM
HCC1187
  IC50: > 32 µM
OMC-1
  IC50: 12.1 µM
TE-1
  IC50: 21.6 µM
RPMI-8866
  IC50: 8.1 µM
RKO
  IC50: 2.01 µM
GAK
  IC50: 11.7 µM
SHP77
  IC50: > 32 µM
HT-144
  IC50: 8.74 µM

## COc1ccc(-c2cc3nccn3c(Nc3ncccc3C(N)=O)n2)cc1OC
SH-4
  IC50: > 8 µM
LAMA-84
  IC50: > 8 µM
MZ1-PC
  IC50: 3.49 µM
NCI-H1299
  IC50: > 8 µM
MMAC-SF
  IC50: > 8 µM
U-266
  IC50: 4.71 µM
TK-10
  IC50: 6.96 µM
SCC-15
  IC50: > 8 µM
SK-PN-DW
  IC50: 5.37 µM
HOP-62
  IC50: 1.75 µM
DJM-1
  IC50: > 8 µM
A704
  IC50: > 8 µM
CAS-1
  IC50: 4.5 µM
OCUB-M
  IC50: 4.11 µM
697
  IC50: 0.582 µM
no-10
  IC50: > 8 µM
ES4
  IC50: 1.24 µM
SF-126
  IC50: > 8 µM
SW684
  IC50: > 8 µM
EOL1
  IC50: 0.333 µM
COLO-684
  IC50: 5.84 µM
LB771-HNC
  IC50: > 8 µM
MOLT-4
  IC50: 5.81 µM
IST-MEL1
  IC50: 4.61 µM
SK-MEL-2
  IC50: 1.89 µM
SK-LMS-1
  IC50: > 8 µM
L-363
  IC50: 2.93 µM
LS-123
  IC50: > 8 µM
NCI-H2126
  IC50: > 8 µM
LB2241-RCC
  IC50: 4.93 µM
SW 962
  IC50: > 8 µM
K562
  IC50: > 8 µM
GI-1
  IC50: 5.41 µM
HT
  IC50: 6.22 µM
DEL
  IC50: 3.07 µM
RH-1
  IC50: 4.67 µM
J-RT3-T3-5
  IC50: 6.24 µM
LB2518-MEL
  IC50: > 8 µM
BT-474
  IC50: > 8 µM
ES1
  IC50: 2.38 µM
OCI-AML2
  IC50: 4.48 µM
A3-KAW
  IC50: 0.74 µM
LU-139
  IC50: > 8 µM
HCC1187
  IC50: > 8 µM
OMC-1
  IC50: > 8 µM
TE-1
  IC50: > 8 µM
RPMI-8866
  IC50: > 8 µM
RKO
  IC50: 2.77 µM
GAK
  IC50: > 8 µM
SHP77
  IC50: > 8 µM
HT-144
  IC50: 3.72 µM

## NC(=O)Nc1cc(-c2cccc(F)c2)sc1C(=O)N[C@H]1CCCNC1 [AZD-7762]
SH-4
  IC50: > 2 µM
LAMA-84
  IC50: 0.165 µM
MZ1-PC
  IC50: > 2 µM
NCI-H1299
  IC50: 0.556 µM
MMAC-SF
  IC50: > 2 µM
U-266
  IC50: 0.763 µM
TK-10
  IC50: 0.379 µM
SCC-15
  IC50: > 2 µM
SK-PN-DW
  IC50: 0.119 µM
HOP-62
  IC50: 0.726 µM
DJM-1
  IC50: 0.886 µM
A704
  IC50: 0.539 µM
CAS-1
  IC50: 1.21 µM
OCUB-M
  IC50: > 2 µM
697
  IC50: 0.111 µM
no-10
  IC50: > 2 µM
ES4
  IC50: 0.0325 µM
SF-126
  IC50: 0.574 µM
SW684
  IC50: > 2 µM
EOL1
  IC50: < 0.00781 µM
COLO-684
  IC50: 0.294 µM
LB771-HNC
  IC50: 0.559 µM
MOLT-4
  IC50: 0.239 µM
IST-MEL1
  IC50: 0.226 µM
SK-MEL-2
  IC50: 0.1 µM
SK-LMS-1
  IC50: > 2 µM
L-363
  IC50: 0.0739 µM
LS-123
  IC50: 1.81 µM
NCI-H2126
  IC50: > 2 µM
LB2241-RCC
  IC50: 0.061 µM
SW 962
  IC50: > 2 µM
K562
  IC50: > 2 µM
GI-1
  IC50: 0.196 µM
HT
  IC50: 1.87 µM
DEL
  IC50: 0.0459 µM
RH-1
  IC50: 0.227 µM
J-RT3-T3-5
  IC50: 0.267 µM
LB2518-MEL
  IC50: > 2 µM
BT-474
  IC50: > 2 µM
ES1
  IC50: 0.0715 µM
OCI-AML2
  IC50: 1.27 µM
A3-KAW
  IC50: 0.0881 µM
LU-139
  IC50: > 2 µM
HCC1187
  IC50: 0.967 µM
OMC-1
  IC50: 0.575 µM
TE-1
  IC50: 1.21 µM
RPMI-8866
  IC50: 0.139 µM
RKO
  IC50: 0.52 µM
GAK
  IC50: 1.05 µM
SHP77
  IC50: > 2 µM
HT-144
  IC50: 0.338 µM
